Measured values taken from patent publication US20250215029A1 (Recludix Pharma, Inc., priority 2022, published 2025).

Each compound was assayed against T1, pY641-STAT6 in PBMC (Homo sapiens, UniProt P42226) (assay: MSD-pSTAT-PBMC Assay (pSTAT6, IL-4 stimulated)). Details: PBMC, compound 3 hrs, then 1 ng/mL IL-4 for 10 min; Table 115; read-out: STAT6.
T1 construct: Cryopreserved Peripheral Blood Mononuclear Cells (PBMC) are from AllCells; host or cells: cryopreserved PBMC
T1 sequence (P42226 1-847): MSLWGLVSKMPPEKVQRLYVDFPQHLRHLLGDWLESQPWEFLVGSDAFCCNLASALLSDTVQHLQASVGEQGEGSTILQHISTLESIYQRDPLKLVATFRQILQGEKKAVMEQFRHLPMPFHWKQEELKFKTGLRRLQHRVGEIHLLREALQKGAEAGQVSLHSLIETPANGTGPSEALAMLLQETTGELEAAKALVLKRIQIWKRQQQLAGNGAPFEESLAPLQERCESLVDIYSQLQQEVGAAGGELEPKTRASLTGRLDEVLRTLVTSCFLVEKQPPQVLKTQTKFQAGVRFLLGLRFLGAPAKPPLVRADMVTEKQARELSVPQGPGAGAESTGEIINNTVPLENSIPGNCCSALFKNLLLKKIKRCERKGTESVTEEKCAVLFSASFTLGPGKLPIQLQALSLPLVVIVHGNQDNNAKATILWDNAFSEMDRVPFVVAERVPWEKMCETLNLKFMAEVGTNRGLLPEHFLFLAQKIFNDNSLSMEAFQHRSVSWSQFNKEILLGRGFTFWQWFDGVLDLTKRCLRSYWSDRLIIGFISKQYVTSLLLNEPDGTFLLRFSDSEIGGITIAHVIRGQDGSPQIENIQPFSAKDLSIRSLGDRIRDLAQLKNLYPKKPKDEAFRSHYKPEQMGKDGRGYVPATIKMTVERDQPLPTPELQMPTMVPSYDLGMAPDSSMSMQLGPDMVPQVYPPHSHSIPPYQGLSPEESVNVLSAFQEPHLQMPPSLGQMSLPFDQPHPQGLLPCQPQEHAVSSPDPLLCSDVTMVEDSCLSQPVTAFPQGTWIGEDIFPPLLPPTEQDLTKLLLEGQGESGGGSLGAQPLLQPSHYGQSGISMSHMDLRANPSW
Assay type: cell-based
Excerpt: Cryopreserved Peripheral Blood Mononuclear Cells (PBMC) are from AllCells. Recombinant Human IL-4 and IL-6 are from Peprotech. Mouse monoclonal anti-STAT3 antibody, rabbit monoclonal anti-pY705-STAT3 antibody, rabbit monoclonal Anti-pY641-STAT6 antibody, and lysis buffer are from Cell Signaling Technology (CST). Mouse monoclonal anti-STAT6 antibody is from BioLegend. Assay plates, blocker, and anti-rabbit secondary antibody are from Meso Scale Discovery (MSD).
Cyropreserved PBMCs were thawed out and allowed to recover overnight in IMDM+10% heat-inactivated FBS prior to plating 50,000 (STAT3) or 25,000 (STAT6) cells per well in 96-well U-bottom tissue culture plates. Cells were treated with compound for 3 hrs, then stimulated with 10 ng/mL IL-6 (STAT3) or 1 ng/mL IL-4 (STAT6) for 10 min. Cells were then spun down and washed with ice-cold PBS prior to lysing the cell pellet with 1× lysis buffer (CST) with 1× HALT protease and phosphatase inhibitor cocktail (Thermo). Lysates were transferred to and incubated overnight at 4° C. with shaking in QuickPlex 96-well high bind assay plates (MSD) pre-coated overnight with 30 μL per well of 0.6 μg/mL mouse monoclonal anti-STAT3 antibody (STAT3) or 2 μg/mL mouse monoclonal anti-STAT6 antibody (STAT6) in 1× PBS, and pre-blocked for 1 hour with 3% Blocker-A (MSD). Captured protein in the assay plates were then washed and probed with 25 μL per well of […] rabbit monoclonal anti-pY705-STAT3 antibody (STAT3) or 0.18 μg/ml rabbit monoclonal Anti-pY641-STAT6 antibody (STAT6) in 1% Blocker-A for 1 hour at room temperature with shaking, then washed and probed with 25 ul per well of 1 ug/ml Sulfo-TAG Labeled Goat Anti-Rabbit Antibody (MSD) in 1% Blocker-A for 1 hour at room temperature with shaking. Assay plates were then washed and 150 μL of 1× Read Buffer-T (MSD) was added to each well prior to reading on an SQ120 MSD Plate Reader. Assay signal from each sample was subtracted by the signal from unstimulated control wells and normalized to DMSO control wells. IC50 values were calculated using Graph Pad Prism Dose-Response Nonlinear Regression with variable slope. For both pSTAT3 and pSTAT6 A=≤100 nM; B 100-1000 nM; C=>1000-3000 nM; D=>3 μM; and NT=Not Tested.

Structure (SMILES) | IC50 [µM]
CC(C)(C)C(=O)SCCOP(=O)(OCCSC(=O)C(C)(C)C)C(F)(F)c1ccc2sc(C(=O)N[C@H]3CCC[C@H]4CC[C@@H](C(=O)N5C[C@H](c6ccccc6)[C@@H](C#N)C56CC6)N4C3=O)cc2c1 (single isomer, unassigned) [Compound 1081] | < 0.1
CC(C)(C)C(=O)SCCOP(=O)(OCCSC(=O)C(C)(C)C)C(F)(F)c1ccc2sc(C(=O)N[C@H]3CCC[C@H]4CC[C@@H](C(=O)N5C[C@@H](c6ccccc6)[C@H](C#N)C56CC6)N4C3=O)cc2c1 (single isomer, unassigned) [Compound 1080] | < 0.1
CCCOC(=O)[C@H](C)NP(=O)(Oc1ccccc1)[C@@H](F)c1ccc2sc(C(=O)N[C@H]3CCCC[C@H]4CC[C@@H](C(=O)N5C[C@H](c6cccc(Cl)c6)[C@@H](C#N)C56CC6)N4C3=O)cc2c1 (stereo partly drawn) [Compound 345] | < 0.1

Same assay, conditions: STAT6, PBMC, compound 3 hrs, then 1 ng/mL IL-4 for 10 min; Table 115

Structure (SMILES) | IC50 [µM]
COCCOC(=O)[C@H](C)NP(=O)(Oc1ccccc1)[C@@H](F)c1ccc2sc(C(=O)N[C@H]3CCCC[C@H]4CC[C@@H](C(=O)N5C[C@@H](c6cccnc6)CC56CC6)N4C3=O)cc2c1 (stereo partly drawn) [Compound 378, 2-methoxyethyl (((R)-fluoro(2-(((3S,6S,10aS)-5-oxo-3-((R)-6-(pyridin-3-yl)-4-azaspiro[2.4]heptane-4-carbonyl)decahydropyrrolo[1,2-a]azocin-6-yl)carbamoyl)benzo [b]thiophen-5-yl)methyl)(phenoxy)phosphoryl)-L-alaninate] | < 0.1
CCCOC(=O)[C@H](C)N[P@@](=O)(Oc1ccccc1)[C@@H](F)c1ccc2sc(C(=O)N[C@H]3CCCC[C@H]4CC[C@@H](C(=O)N5C[C@@H](c6cccnc6)CC56CC6)N4C3=O)cc2c1 (single isomer, unassigned) [Compound 461] | < 0.1
C[C@H](NP(=O)(Oc1ccccc1)[C@@H](F)c1ccc2sc(C(=O)N[C@H]3CCCC[C@H]4CC[C@@H](C(=O)N5C[C@@H](c6cccnc6)CC56CC6)N4C3=O)cc2c1)C(=O)OCC(C)(C)C (stereo partly drawn) [Compound 477, neopentyl (((R)-fluoro(2-(((3S,6S,10aS)-5-oxo-3-((R)-6-(pyridin-3-yl)-4-azaspiro[2.4]heptane-4-carbonyl)decahydropyrrolo[1,2-a]azocin-6-yl)carbamoyl)benzo [b]thiophen-5-yl)methyl)(phenoxy)phosphoryl)-L-alaninate] | < 0.1
CCCOC(=O)[C@@H]1CCN1P(=O)(Oc1ccccc1)[C@H](F)c1ccc2sc(C(=O)N[C@H]3CCC[C@H]4CC[C@@H](C(=O)N5C[C@H](c6ccccc6)[C@@H](C#N)C56CC6)N4C3=O)cc2c1 (stereo partly drawn) [Compound 488, propyl (2S)-1-(((S)-(2-(((3S,6S,9aS)-3-((6S,7R)-7-cyano-6-phenyl-4-azaspiro[2.4]heptane-4-carbonyl)-5-oxooctahydro-1H-pyrrolo[1,2-a]azepin-6-yl)carbamoyl)benzo [b]thiophen-5-yl)fluoromethyl) (phenoxy)phosphoryl) azetidine-2-carboxylate] | 1 to 3
CCCOC(=O)[C@H](C)NP(=O)(Oc1ccccc1)C(F)c1ccc2sc(C(=O)N[C@H]3CCCCC[C@H]4[C@H](O)C[C@@H](C(=O)N5CC(C#N)[C@H](c6ccccc6)C5)N4C3=O)cc2c1 (relative stereo) [Compound 270, propyl (((2-(((1R,3S,6S,11aS)-3-((rel-trans)-3-cyano-4-phenylpyrrolidine-1-carbonyl)-1-hydroxy-5-oxodecahydro-1H-pyrrolo[1,2-a]azonin-6-yl)carbamoyl)benzo [b]thiophen-5-yl)fluoromethyl) (phenoxy)phosphoryl)-L-alaninate] | 0.1 to 1
CCCOC(=O)[C@H](C)NP(=O)(Cc1ccc2sc(C(=O)N[C@H]3CCCC[C@H]4CC[C@@H](C(=O)N5C[C@@H](c6cccnc6)CC56CC6)N4C3=O)cc2c1)Oc1ccccc1 (stereo partly drawn) [Compound 476, propyl (((2-(((3S,6S,10aS)-5-oxo-3-((R)-6-(pyridin-3-yl)-4-azaspiro[2.4]heptane-4-carbonyl)decahydropyrrolo[1,2-a]azocin-6-yl)carbamoyl)benzo [b]thiophen-5-yl)methyl)(phenoxy)phosphoryl)-L-alaninate] | < 0.1
CCCOC(=O)[C@H](C)NP(=O)(Oc1ccccc1)[C@@H](F)c1ccc2sc(C(=O)N[C@H]3CCCC[C@H]4CC[C@@H](C(=O)N5C(=O)N(c6cncc(C(F)(F)F)c6)C(=O)C56CC6)N4C3=O)cc2c1 (stereo partly drawn) [Compound 330, propyl (((R)-(2-(((3S,6S,10aS)-3-(5,7-dioxo-6-(5-(trifluoromethyl)pyridin-3-yl)-4,6-diazaspiro[2.4]heptane-4-carbonyl)-5-oxodecahydropyrrolo [1,2-a]azocin-6-yl)carbamoyl)benzo [b]thiophen-5-yl)fluoromethyl) (phenoxy)phosphoryl)-L-alaninate] | > 3
CCCOC(=O)[C@H](C)NP(=O)(Oc1ccccc1)C(F)c1ccc2sc(C(=O)N[C@H]3CCCC[C@H]4CC[C@@H](C(=O)N5C[C@@H](C#N)[C@H](c6ccn(C)c(=O)c6)C5)N4C3=O)cc2c1 (single isomer, unassigned) [Compound 319] | 1 to 3
CCCOC(=O)[C@H](C)NP(=O)(Oc1ccccc1)[C@H](F)c1ccc2sc(C(=O)N[C@H]3C[C@H](C)C[C@H]4CC[C@@H](C(=O)N5C[C@H](c6ccccc6)[C@@H](C#N)C56CC6)N4C3=O)cc2c1 (stereo partly drawn) [Compound 352, propyl (((S)-(2-(((3S,6S,8S,9aR)-3-((6S,7R)-7-cyano-6-phenyl-4-azaspiro[2.4]heptane-4-carbonyl)-8-methyl-5-oxooctahydro-1H-pyrrolo[1,2-a]azepin-6-yl)carbamoyl)benzo [b]thiophen-5-yl)fluoromethyl) (phenoxy)phosphoryl)-L-alaninate] | < 0.1
CCCOC(=O)[C@H](C)NP(=O)(Oc1ccccc1)C(F)c1ccc2sc(C(=O)N[C@H]3CCCC[C@H]4CC[C@@H](C(=O)N5CCC(c6cnn(C)c(=O)c6)C5)N4C3=O)cc2c1 (stereo partly drawn) [Compound 465, propyl ((fluoro(2-(((3S,6S,10aS)-3-(3-(1-methyl-6-oxo-1,6-dihydropyridazin-4-yl)pyrrolidine-1-carbonyl)-5-oxodecahydropyrrolo [1,2-a]azocin-6-yl)carbamoyl)benzo [b]thiophen-5-yl)methyl)(phenoxy)phosphoryl)-L-alaninate] | > 3
CCCOC(=O)[C@H](C)NP(=O)(Oc1ccccc1)[C@H](F)c1ccc2sc(C(=O)N[C@H]3CCCC[C@H]4CC[C@@H](C(=O)N5CC(c6cccnc6)CC56CC6)N4C3=O)cc2c1 (stereo in doubt) [Compound 458, propyl (((S)-fluoro(2-(((3S,6S,10aS)-5-oxo-3-((R)-6-(pyridin-3-yl)-4-azaspiro[2.4]heptane-4-carbonyl)decahydropyrrolo[1,2-a]azocin-6-yl)carbamoyl)benzo [b]thiophen-5-yl)methyl)(phenoxy)phosphoryl)-L-alaninate] | < 0.1

Same assay, conditions: read-out: STAT6; PBMC, compound 3 hrs, then 1 ng/mL IL-4 for 10 min; Table 115

Structure (SMILES) | IC50 [µM]
CCCOC(=O)[C@H](C)NP(=O)(Oc1ccccc1)[C@@H](F)c1ccc2sc(C(=O)N[C@H]3CCC[C@H]4CC[C@@H](C(=O)N5C[C@@H](c6cccc(C)c6)[C@H](C#N)C56CC6)N4C3=O)cc2c1 (single isomer, unassigned) [Compound 342] | < 0.1
